Laboratory results published in US20250109127A1, “METHODS OF USE OF PHENOXYPROPYLAMINE COMPOUNDS TO TREAT DEPRESSION” (Minerva Neurosciences, Inc., priority 2013, published 2025).
Where a name gives a salt, the structure may show the parent alone.

System: DOPAC release in the rat prefrontal cortex
Assay: Microdialysis: DOPAC release in prefrontal cortex after I.P. administration
Assay type: in vivo
Details: for DOPAC release, MEAN: 3 mg/kg IP; for DOPAC release, MEAN / DOPAC (% of respective basal) MEAN: n = 8
Description: The aim of the study was to evaluate, using microdialysis, the effects of an intraperitoneal (I.P.) administration in rats of three different doses of SON-117 on dopamine and its metabolites, serotonin and its metabolite (5-HIAA), and norepinephrine levels in prefrontal cortex.
Thirty-two adult male Wistar rats were used for the whole study (4 groups of eight animals planned for the study, Table 1).
Surgery was performed on rats weighing about 300 g at the beginning of the experiments. Rats were anaesthetized with Ketamine (50 mg/kg) & Xylazine (15 mg/kg) by intramuscular administration. The animals were placed in a stereotaxic apparatus in the flat-skull position at a constant setting of −3.3 mm between ear bars and the incisor bar. The animals were treated with a local anesthesic (xylocaine 1%, Astra Zeneca) and an analgesic (Temgesic, from Schering Plough, 0.05 mg/kg, s.c.). A rostrocaudal midline incision was made with a lancet to expose the dorsal skull surface. The “stereotaxic zero” was defined by the Bregma in accordance with Paxinos and Watson's atlas (1986). A hole was drilled in the skull with a drill and the meninges were pierced with a sterile needle to implant a CMA12 guide cannula which later received the dialysis probe.
Coordinates used for implanting guide cannula in prefrontal cortex from Bregma were anteroposterior 3.7 mm, mediolateral 0.8 mm, and dorsoventral −2 mm (top of the probe was at −5 mm). The guide cannula was fixed to the skull with two stainless steel screws (1.88 mm outside diameter) anchored. An application of dental cement was added. A plastic collar allowed each animal to be tethered to a Swivel assembly of the CMA 120 awake animal system. Following surgery, rats were kept in individual cages and allowed to recover for a minimum of 3-5 days before the experimentation. The rats were handled and put in plastic bowl for 10 min at least every day to habituate the animals to their new environment for the dialysis. An I.P. administration with saline was also performed every day.
Dialysis probes (CMA12/3 mm, membrane, 20 kD cut-off, Carnegie Medicine, Stockholm, Sweden), were carefully washed before inserting into the guide cannula. The wash was performed with the artificial cerebrospinal fluid (aCSF) medium (NaCl 147 mM, KCl 2.7 mM, CaCl2 1.2 mM, MgCl2 0.85 mM) at room temperature. The dialysis system was then equilibrated at 20° C. at a perfusion rate of 1 μl/min with a Carnegie pump (CMA100). All catheters (FEP tubing, internal volume of 1.2 μl/10 cm, and tubing adaptors) used for microdialysis were treated in the same conditions.
The probes duly prepared were inserted into the guide cannula and the CMA120 Swivel assembly secured to the animal using a plastic collar. Flow through the dialysis probe with aCSF was maintained at a rate of 1 μl/min during the whole experimentation. The first four fractions (corresponding to 2 hours) were discarded to avoid the effects of parenchymal disturbance and to ensure that an approximate steady-state level was reached. Fractions were then collected over a period of 8.5 h during which time the animals remained quiet. The dialysates were automatically collected with an autosampler (microfraction collector CMA 140, Carnegie Medicin) and stored at −80° C. until analysis. […] Perfusion was then maintained for 7 hours with aCSF. The dialysates (30 μl) were collected into 300 μl vials, transferred into dry ice and then kept frozen (−80° C.) until analysis. Frozen samples were shipped to a partner for analysis. At the end of the microdialysis study, a PBS with colored ink was perfused through the probe in order to visualize the dialyzed area.
Catecholamine assay: Concentrations of dopamine, DOPAC, HVA, 5-HIAA, 5-HT, and norepinephrin were determined for each sample by HPLC coupled with electrochemical detection.

**Q.** Which “DOPAC release, MEAN” value (T-1 h 30-T-1 h (before administration)) does the source give for `Cc1nnc(-c2cc3c(OC[C@@H](O)CN4CCC(c5ccc(Cl)c(Cl)c5)CC4)cccc3o2)o1` [SON-117, (S)-1-(4-(3,4-dichlorophenyl)piperidino)-3-(2-(5-methyl-1,3,4-oxadiazol-2-yl)benzo(b)furan-4-yloxy)-2-propanol hydrochloride] here?
**A.** 101.39 % of respective basal

**Q.** And the “DOPAC release, MEAN” value (T-1 h-T-30 min (before administration))?
**A.** 103.75 % of respective basal

**Q.** And the “DOPAC levels, change (not statistically significant)” value (SON-117 0.1 mg/kg I.P., from 1.5 h to 2.5 h and from 4.5 h to 7 h)?
**A.** tended to induce a slight increase

**Q.** And the “release of DOPAC, trend” value (SON-117 0.1 mg/kg, at 2 h and from 4.5 h to 7 h)?
**A.** trend for an increased release

**Q.** What about the “DOPAC dialysate levels vs mean pre-administration value” (SON-117 0.3 mg/kg IP) of the same compound?
**A.** no statistically significant differences

**Q.** What about the “DOPAC dialysate levels vs mean pre-administration value” (SON-117 3 mg/kg IP) of the same compound?
**A.** no statistically significant differences

**Q.** And the “DOPAC, difference to the citalopram group (two-way ANOVA)” value (SON-117 at the three doses tested, in function of time)?
**A.** no significant differences

**Q.** And the “DOPAC (% of respective basal) MEAN” value (SON-117 group 0.1 mg/kg I.P., T0-T30 min)?
**A.** 81.81 % of respective basal

**Q.** And the “DOPAC (% of respective basal) MEAN” value (SON-117 group 0.1 mg/kg I.P., T30-T1 h)?
**A.** 104.52 % of respective basal

**Q.** What about the “DOPAC (% of respective basal) MEAN” value (SON-117 group 0.1 mg/kg I.P., T1 h 30-T2 h) of the same compound?
**A.** 144.57 % of respective basal

**Q.** What about the “DOPAC (% of respective basal) MEAN” value (SON-117 group 0.1 mg/kg I.P., T1 h-T1 h 30) of the same compound?
**A.** 112.3 % of respective basal

**Q.** What about the “DOPAC (% of respective basal) MEAN” value (SON-117 group 0.1 mg/kg I.P., T2 h 30-T3 h) of the same compound?
**A.** 94.20 % of respective basal

**Q.** And the “DOPAC (% of respective basal) MEAN” value (SON-117 group 0.1 mg/kg I.P., T2 h-T2 h 30)?
**A.** 102.15 % of respective basal

**Q.** And the “DOPAC (% of respective basal) MEAN” value (SON-117 group 0.1 mg/kg I.P., T3 h 30-T4 h)?
**A.** 96.09 % of respective basal

**Q.** What about the “DOPAC (% of respective basal) MEAN” value (SON-117 group 0.1 mg/kg I.P., T3 h-T3 h 30) of the same compound?
**A.** 90.94 % of respective basal

**Q.** What about the “DOPAC (% of respective basal) MEAN” value (SON-117 group 0.1 mg/kg I.P., T4 h 30-T5 h) of the same compound?
**A.** 120.32 % of respective basal

**Q.** And the “DOPAC (% of respective basal) MEAN” value (SON-117 group 0.1 mg/kg I.P., T4 h-T4 h 30)?
**A.** 142.52 % of respective basal

**Q.** And the “DOPAC (% of respective basal) MEAN” value (SON-117 group 0.1 mg/kg I.P., T5 h 30-T6 h)?
**A.** 122.76 % of respective basal

**Q.** And the “DOPAC (% of respective basal) MEAN” value (SON-117 group 0.1 mg/kg I.P., T5 h-T5 h 30)?
**A.** 129.53 % of respective basal

**Q.** And the “DOPAC (% of respective basal) MEAN” value (SON-117 group 0.1 mg/kg I.P., T6 h 30-T7 h)?
**A.** 137.94 % of respective basal

**Q.** What about the “DOPAC (% of respective basal) MEAN” value (SON-117 group 0.1 mg/kg I.P., T6 h-T6 h 30) of the same compound?
**A.** 127.81 % of respective basal

**Q.** What about the “DOPAC (% of respective basal) MEAN” value (SON-117 group 0.1 mg/kg I.P., T-30 min-T0 (before administration)) of the same compound?
**A.** 90.82 % of respective basal

**Q.** And the “DOPAC (% of respective basal) MEAN” value (SON-117 group 0.1 mg/kg I.P., T-1 h 30-T-1 h (before administration))?
**A.** 109.18 % of respective basal

**Q.** What about the “DOPAC (% of respective basal) MEAN” value (SON-117 group 0.1 mg/kg I.P., T-1 h-T-30 min (before administration)) of the same compound?
**A.** 100.52 % of respective basal

**Q.** What about the “DOPAC (% of respective basal) MEAN” value (SON-117 group 0.3 mg/kg I.P., T0-T30 min) of the same compound?
**A.** 86.10 % of respective basal

**Q.** What about the “DOPAC (% of respective basal) MEAN” value (SON-117 group 0.3 mg/kg I.P., T30-T1 h) of the same compound?
**A.** 84.32 % of respective basal

**Q.** And the “DOPAC (% of respective basal) MEAN” value (SON-117 group 0.3 mg/kg I.P., T1 h 30-T2 h)?
**A.** 102.17 % of respective basal

**Q.** And the “DOPAC (% of respective basal) MEAN” value (SON-117 group 0.3 mg/kg I.P., T1 h-T1 h 30)?
**A.** 93.91 % of respective basal

**Q.** And the “DOPAC (% of respective basal) MEAN” value (SON-117 group 0.3 mg/kg I.P., T2 h 30-T3 h)?
**A.** 83.76 % of respective basal

**Q.** And the “DOPAC (% of respective basal) MEAN” value (SON-117 group 0.3 mg/kg I.P., T2 h-T2 h 30)?
**A.** 81.99 % of respective basal

**Q.** What about the “DOPAC (% of respective basal) MEAN” value (SON-117 group 0.3 mg/kg I.P., T3 h 30-T4 h) of the same compound?
**A.** 94.46 % of respective basal

**Q.** And the “DOPAC (% of respective basal) MEAN” value (SON-117 group 0.3 mg/kg I.P., T3 h-T3 h 30)?
**A.** 83.66 % of respective basal

**Q.** And the “DOPAC (% of respective basal) MEAN” value (SON-117 group 0.3 mg/kg I.P., T4 h 30-T5 h)?
**A.** 107.30 % of respective basal

**Q.** What about the “DOPAC (% of respective basal) MEAN” value (SON-117 group 0.3 mg/kg I.P., T4 h-T4 h 30) of the same compound?
**A.** 94.25 % of respective basal

**Q.** And the “DOPAC (% of respective basal) MEAN” value (SON-117 group 0.3 mg/kg I.P., T5 h 30-T6 h)?
**A.** 88.68 % of respective basal

**Q.** And the “DOPAC (% of respective basal) MEAN” value (SON-117 group 0.3 mg/kg I.P., T5 h-T5 h 30)?
**A.** 79.90 % of respective basal

**Q.** And the “DOPAC (% of respective basal) MEAN” value (SON-117 group 0.3 mg/kg I.P., T6 h 30-T7 h)?
**A.** 96.87 % of respective basal

**Q.** And the “DOPAC (% of respective basal) MEAN” value (SON-117 group 0.3 mg/kg I.P., T6 h-T6 h 30)?
**A.** 97.32 % of respective basal

**Q.** And the “DOPAC (% of respective basal) MEAN” value (SON-117 group 0.3 mg/kg I.P., T-30 min-T0 (before administration))?
**A.** 92.84 % of respective basal

**Q.** What about the “DOPAC (% of respective basal) MEAN” value (SON-117 group 0.3 mg/kg I.P., T-1 h 30-T-1 h (before administration)) of the same compound?
**A.** 104.24 % of respective basal

**Q.** And the “DOPAC (% of respective basal) MEAN” value (SON-117 group 0.3 mg/kg I.P., T-1 h-T-30 min (before administration))?
**A.** 102.91 % of respective basal
